US7005138B2, “Method of systematically delivering SSRIs” (Duramed Pharmaceuticals, Inc., priority 2001, dated 2006)

How the values were obtained:
[1] = rabbit, cited from earlier work
[2] = Rabbit study: plasma levels of fluoxetine and norfluoxetine after single oral vs. intravaginal dose
Protocol: (§1) A study was designed to compare the pharmacokinetic profiles of oral vs. intravaginal administration of fluoxetine in white albino female New Zealand rabbits. The study compared the blood levels of fluoxetine and/or its metabolites in the rabbits after either a single oral dose or a single intravaginal dose of fluoxetine hydrochloride. Both oral (tablet) and intravaginal (transvaginal insert) administration delivered the standard human daily dose of 20 mg fluoxetine hydrochloride to each rabbit. The oral route was used to compare the bioavailability of fluoxetine by the two routes of administration.
(§2) Three rabbits received the fluoxetine tablets orally, while three rabbits received fluoxetine inserts intravaginally. The fluoxetine tablets were administered orally using an animal pilling device. The fluoxetine inserts were administered by insertion into the vaginas of the rabbits. The inserts remained in place for 2–4 hours, after which they were removed. Removal was accomplished by using an appropriate instrument to grasp the extension on the back of the insert. If an insert was expelled from an animal before removal, it was noted but not replaced. Both tablets and intravaginal inserts were administered once on Day 0.
Blood samples were obtained for the determination of plasma concentrations of fluoxetine. Starting on Day 0, blood samples were obtained for toxicokinetic determinations from all animals pretest and at 1, 3, 8, 12, 16, 24, 36, 48, 72, 96, 120, 144, 168, 240, 360, 480, 672 and 840 hours post-dose. Pre-dose samples were collected one week prior to dosing. Approximately 1.5 mL of whole blood was obtained from the medial auricular artery of the unanesthetized rabbits, unfasted, and were preserved using ethylenediamine tetraacetic acid (EDTA). […]
The EDTA preserved rabbit plasma samples were analyzed for fluoxetine and norfluoxetine using a solid phase extraction (SPE) technique. […]
Samples were evaluated using a solid phase extraction technique using conditioned SPE cartridges, then analyzed via HPLC and mass spectroscopy. […]

[3] = rabbit
Protocol: as §1, §2
The animals were observed twice daily for mortality and general condition. Animals in poor health were identified and further monitored. In addition, observations were made for any signs of toxic or pharmacologic effects (e.g., abnormalities in general, appearance, activity, behavior, respiration, etc.).

[4] = oral administration; cited from earlier work

SMILES	tolerability of repeated daily doses ([1]; in vivo)	mortality with repeated daily doses ([1]; up to 7.5 mg/kg/day)	fluoxetine plasma levels after 72 hours ([2]; in vivo, po)	decreased food consumption ([3]; in vivo, po)	differences in clinical observations or body weights between administration methods ([3]; in vivo, po)	mortality ([3]; oral tablet and intravaginal insert groups, length of the study)	half life [4] [h]	mean plasma levels of metabolite norfluoxetine, intravaginal delivery compared to oral delivery ([2]; after fluoxetine single 20 mg dose)	mean norfluoxetine levels, persistence ([2]; oral group)
CNCCC(Oc1ccc(C(F)(F)F)cc1)c1ccccc1 (racemic) [fluoxetine, dl-N-methyl-γ-[4-(trifluoromethyl)phenoxy]benzenepropanamine]	fairly well tolerated	not associated with mortality	almost undetectable	One animal from each treatment group	no differences	No mortality	48 to 72	–	–
NCCC(Oc1ccc(C(F)(F)F)cc1)c1ccccc1 (stereo not shown) [norfluoxetine]	–	–	–	–	–	–	170 to 220	much lower	present throughout most of the study
